The record followed here is ChEMBL document CHEMBL2074544 (J Lipid Res, 2000).

The term Km denotes the substrate concentration at which the rate is half of its maximum.

In data set [1] the target is T1, Oct1 (Solute carrier family 22 member 1) (Mus musculus, UniProt O08966).
T1 sequence (O08966 whole entry): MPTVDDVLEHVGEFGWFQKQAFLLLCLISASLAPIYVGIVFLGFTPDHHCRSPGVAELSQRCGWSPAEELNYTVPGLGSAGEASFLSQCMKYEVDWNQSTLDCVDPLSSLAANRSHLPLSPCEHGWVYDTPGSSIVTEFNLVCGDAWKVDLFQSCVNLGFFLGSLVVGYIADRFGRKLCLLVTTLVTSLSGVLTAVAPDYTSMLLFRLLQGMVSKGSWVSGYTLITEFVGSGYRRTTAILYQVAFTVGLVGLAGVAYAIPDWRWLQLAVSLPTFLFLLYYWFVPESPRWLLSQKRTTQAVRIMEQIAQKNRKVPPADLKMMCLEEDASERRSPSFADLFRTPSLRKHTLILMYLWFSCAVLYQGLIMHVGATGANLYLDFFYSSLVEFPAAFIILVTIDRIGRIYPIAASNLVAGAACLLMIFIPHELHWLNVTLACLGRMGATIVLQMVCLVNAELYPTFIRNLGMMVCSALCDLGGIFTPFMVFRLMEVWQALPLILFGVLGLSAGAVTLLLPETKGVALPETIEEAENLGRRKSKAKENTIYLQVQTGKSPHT
The experiment in a line: in vitro. Conditions: BALB/3T3 cells expressing Oct1, probe TEA (50 uM).

Data set [2] concerns the target T2, Solute carrier family 22 member 1 (Mus musculus, UniProt O08966).
T2 sequence (O08966 whole entry): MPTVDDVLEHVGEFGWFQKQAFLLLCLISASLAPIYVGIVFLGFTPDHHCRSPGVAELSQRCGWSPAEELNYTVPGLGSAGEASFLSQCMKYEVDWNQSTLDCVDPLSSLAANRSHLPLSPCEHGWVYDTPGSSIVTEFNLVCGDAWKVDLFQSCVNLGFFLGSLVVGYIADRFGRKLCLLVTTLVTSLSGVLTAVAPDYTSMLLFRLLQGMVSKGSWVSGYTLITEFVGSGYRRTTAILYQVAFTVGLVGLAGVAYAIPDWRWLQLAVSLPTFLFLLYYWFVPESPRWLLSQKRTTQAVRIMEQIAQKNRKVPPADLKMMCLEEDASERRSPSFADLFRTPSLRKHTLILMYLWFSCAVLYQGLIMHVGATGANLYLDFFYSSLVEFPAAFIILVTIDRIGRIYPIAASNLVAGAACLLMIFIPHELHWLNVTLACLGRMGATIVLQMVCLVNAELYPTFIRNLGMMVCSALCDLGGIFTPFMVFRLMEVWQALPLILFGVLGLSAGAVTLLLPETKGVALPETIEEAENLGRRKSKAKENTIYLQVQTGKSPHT
The data set can be described thus: TP_TRANSPORTER: inhibition of TEA uptake (TEA: 50 uM, TMA: 10000 uM) in Oct1-expressing BALB/3T3 cells. The format is functional, cell-based. More on the design: scale not given: the % may be the effect or the level left.

For data set [3], the target named is T1, Oct1 (Solute carrier family 22 member 1). The experiment in a line: TP_TRANSPORTER: inhibition of TEA uptake (TEA: 50 uM, Quinidine: 1000 uM) in Oct1-expressing BALB/3T3 cells. Format: functional, cell-based. The arrangement: scale not given: the % may be the effect or the level left. To be noted: BALB/3T3 cells expressing Oct1, probe TEA (50 uM), read-out: Activity.

For data set [4] the target is unchanged. The data set can be described thus: TP_TRANSPORTER: inhibition of TEA uptake (TEA: 50 uM, NMN: 10000 uM) in Oct1-expressing BALB/3T3 cells. To be noted: BALB/3T3 cells expressing Oct1, probe TEA (50 uM), read-out: Activity. The format is functional, cell-based. More on the design: scale not given: the % may be the effect or the level left.
Substrate in data set [5]: CCCC[N+](CCCC)(CCCC)CCCC
The data set can be described thus: cells, lysate or membranes named.

Substrate in data set [6]: C[N+](C)(C)CCO
The data set can be described thus: cells, lysate or membranes named.

As to `Cc1ncc(C[n+]2csc(CCO)c2C)c(N)n1` [THIAMINE ION], the activity at 10000 uM in data set [1] was 0%.

On to `C[N+](C)(C)C.[Cl-]` [TETRAMETHYLAMMONIUM], for which the Activity in data set [2] is listed as 0%.

In the case of `C=C[C@H]1C[N@@]2CC[C@H]1C[C@@H]2[C@@H](O)c1ccnc2ccc(OC)cc12` [QUINIDINE], the activity at 1000 µM in data set [3] came to 0%.

As for `CNC(=O)c1cccnc1` [NICOTINYL METHYLAMIDE], the activity at 10000 uM in data set [4] was determined as 0%.

B1: Solute carrier family 22 member 1 (Mus musculus) (protein)
chain: MPTVDDVLEHVGEFGWFQKQAFLLLCLISASLAPIYVGIVFLGFTPDHHCRSPGVAELSQRCGWSPAEELNYTVPGLGSAGEASFLSQCMKYEVDWNQSTLDCVDPLSSLAANRSHLPLSPCEHGWVYDTPGSSIVTEFNLVCGDAWKVDLFQSCVNLGFFLGSLVVGYIADRFGRKLCLLVTTLVTSLSGVLTAVAPDYTSMLLFRLLQGMVSKGSWVSGYTLITEFVGSGYRRTTAILYQVAFTVGLVGLAGVAYAIPDWRWLQLAVSLPTFLFLLYYWFVPESPRWLLSQKRTTQAVRIMEQIAQKNRKVPPADLKMMCLEEDASERRSPSFADLFRTPSLRKHTLILMYLWFSCAVLYQGLIMHVGATGANLYLDFFYSSLVEFPAAFIILVTIDRIGRIYPIAASNLVAGAACLLMIFIPHELHWLNVTLACLGRMGATIVLQMVCLVNAELYPTFIRNLGMMVCSALCDLGGIFTPFMVFRLMEVWQALPLILFGVLGLSAGAVTLLLPETKGVALPETIEEAENLGRRKSKAKENTIYLQVQTGKSPHT
In the case of B1, the Km in data set [5] is 43 µM; in data set [6], 42 µM.
